This is an account of results in US7511065B2, “Mixed lineage kinase modulators” (Eli Lilly and Company, priority 2002, dated 2009).

Structures can show the parent of a compound that is named as a salt.

As a reminder, the IC50 is the concentration that inhibits the measured activity by half.

In this experiment the target is T1, MLK-7 (Homo sapiens, UniProt Q9NYL2).
T1 construct: GST; His tag; made in house; host or cells: Sf9 insect cells (baculovirus, pVL1392)
Kind of experiment: In vitro assay of purified MLK-7 kinase activity (33P transfer from ATP to myelin basic protein). As to conditions: recombinant GST-tagged MLK-7 at 1 nm, 30 uM ATP, 5 uM MBP substrate, 2 hours room temperature; read-out: MLK7 IC50. It counts as biochemical. The method, boiled down:
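GST/His-tagged MLK-7 from Sf9 (baculovirus), 1 nM, with 5 uM MBP, 30 uM ATP plus 33P, 5 mM MgCl2, 2 mM DTT, 4% DMSO in 44 mM HEPES pH 7.4; 2 h at room temperature, stopped with phosphoric acid. Filter-bound 33P counted; IC50 for reduced phosphate transfer, Ki via Cheng-Prusoff.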
With `CN(C)CCCOc1ccc(-c2ccc3c(-c4c(-c5ccccn5)nn5c4CCC5)ccnc3c2)cc1` [Example 113, Dimethyl-(3-{4-[4-(2-Pyridin-2-yl-5,6-dihydro-4H-pyrrolo[1,2-b]pyrazol-3-yl)quinolin-7-yl]phenoxy}propyl)amine Ditrifluoroacetic Acid], the IC50 is no more than 100 nM. Under `c1ccc(-c2nn3c(c2-c2ccnc4cc(-c5cnccn5)ccc24)CCC3)nc1` [Example 67, 7-Pyrazin-2-yl-4-(2-Pyridin-2-yl-5,6-dihydro-4H-pyrrolo[1,2-b]pyrazol-3-yl)quinoline Ditrifluoroacetic Acid] stands no more than 1000 nM; under `FC(F)(F)COc1ccc(-c2ccc3c(-c4c(-c5ccccn5)nn5c4CCC5)ccnc3c2)cc1` [Example 120, 4-(2-Pyridin-2-yl-5,6-dihydro-4H-pyrrolo[1,2-b]pyrazol-3-yl)-7-[4-(2,2,2-trifluoroethoxy)phenyl)quinoline Trifluoroacetic Acid], no more than 100 nM; under `C[S+]([O-])c1ccc(-c2ccc3c(-c4c(-c5ccccn5)nn5c4CCC5)ccnc3c2)cc1` (stereo not drawn) [Example 38, 7-(4-Methanesulfinylphenyl)-4-(2-pyridin-2-yl-5,6-dihydro-4H-pyrrolo[1,2-b]pyrazol-3-yl)quinoline Trifluoroacetic Acid], no more than 100 nM. On to `NC(=O)CCCc1ccc(-c2ccc3c(-c4c(-c5ccccn5)nn5c4CCC5)ccnc3c2)cc1` [Example 86, 4-{4-[4-(2-Pyridin-2-yl-5,6-dihydro-4H-pyrrolo[1,2-b]pyrazol-3-yl)quinolin-7-yl]phenyl}butyramide Trifluoroacetic Acid], for which the IC50 was no more than 100 nM. Next, `CSc1ccc(-c2ccc3c(-c4c(-c5ccccn5)nn5c4CCC5)ccnc3c2)cc1` [Example 25, 7-(4-Methylsulfanylphenyl)-4-(2-pyridin-2-yl-5,6-dihydro-4H-pyrrolo[1,2-b]pyrazol-3-yl)quinoline Trifluoroacetic Acid]: no more than 1000 nM; `CS(=O)(=O)c1ccc(-c2ccc3c(-c4c(-c5ccccn5)nn5c4CCC5)ccnc3c2)cc1` [Example 75, 7-(4-Methanesulfonylphenyl)-4-(2-pyridin-2-yl-5,6-dihydro-4H-pyrrolo[1,2-b]pyrazol-3-yl)quinoline Trifluoroacetic Acid]: no more than 100 nM. Under `O=C(O)CCNC(=O)c1ccc(-c2ccc3c(-c4c(-c5ccccn5)nn5c4CCC5)ccnc3c2)cc1` [Example 147, 3-{4-[4-(2-Pyridin-2-yl-5,6-dihydro-4H-pyrrolo[1,2-b]pyrazol-3-yl)-quinolin-7-yl]-benzoylamino}-propionic Acid Trifluoroacetic Acid Salt] stands no more than 100 nM. For the compound `CS(=O)(=O)Nc1ccc(-c2ccc3c(-c4c(-c5ccccn5)nn5c4CCC5)ccnc3c2)cc1` [Example 16, N-{4-[4-(2-Pyridin-2-yl-5,6-dihydro-4H-pyrrolo[1,2-b]pyrazol-3-yl)quinolin-7-yl]phenyl}methanesulfonamide Trifluoroacetic Acid], the IC50 was no more than 100 nM. As for `Cc1cccc(-c2nn3c(c2-c2ccnc4cc(-c5ccc(Cl)cc5)ccc24)CCC3)n1` [Example 64, 7-(4-Chloro-phenyl)-4-[2-(6-methyl-pyridin-2-yl)-5,6-dihydro-4H-pyrrolo[1,2-b]pyrazol-3-yl]-quinoline], the 50% inhibitory concentration (IC50) was no more than 1000 nM. Next, `Oc1ccc(-c2ccc3c(-c4c(-c5ccccn5)nn5c4CCC5)ccnc3c2)cc1` [Example 7, 4-[4-(2-Pyridin-2-yl-5,6-dihydro-4H-pyrrolo[1,2-b]pyrazol-3-yl)quinolin-7-yl]phenol Trifluoroacetic Acid]: no more than 100 nM; `CN(C)CCOc1ccc(-c2ccc3c(-c4c(-c5ccccn5)nn5c4CCC5)ccnc3c2)cc1` [Example 108, Dimethyl-(2-{4-[4-(2-Pyridin-2-yl-5,6-dihydro-4H-pyrrolo[1,2-b]pyrazol-3-yl)quinolin-7-yl]phenoxy}ethyl)amine Ditrifluoroacetic Acid]: no more than 100 nM. On to `Cc1cccc(-c2nn3c(c2-c2ccnc4cc(-c5cccs5)ccc24)CCC3)n1` [Example 62, 4-[2-(6-Methyl-pyridin-2-yl)-5,6-dihydro-4H-pyrrolo[1,2-b]pyrazol-3-yl]-7-thiophen-2-yl-quinoline Trifluoroacetic Acid], for which the IC50 is no more than 100 nM. In the case of `CC(C)NCCNC(=O)c1ccc(-c2ccc3c(-c4c(-c5ccccn5)nn5c4CCC5)ccnc3c2)cc1` [Example 126, N-(2-Isopropylamino-ethyl)-4-[4-(2-pyridin-2-yl-5,6-dihydro-4H-pyrrolo[1,2-b]pyrazol-3-yl)-quinolin-7-yl]-benzamide], the IC50 was no more than 100 nM. Under `Brc1ccc(-c2ccc3c(-c4c(-c5ccccn5)nn5c4CCC5)ccnc3c2)cc1` [Example 23, 7-(4-Bromophenyl)-4-(2-pyridin-2-yl-5,6-dihydro-4H-pyrrolo[1,2-b]pyrazol-3-yl)quinoline Trifluoroacetic Acid] stands no more than 100 nM; under `CCOc1ccccc1-c1ccc2c(-c3c(-c4ccccn4)nn4c3CCC4)ccnc2c1` [Example 17, 7-(2-Ethoxyphenyl)-4-(2-pyridin-2-yl-5,6-dihydro-4H-pyrrolo[1,2-b]pyrazol-3-yl)quinoline Trifluoroacetic Acid], no more than 10000 nM; under `c1ccc(-c2nn3c(c2-c2ccnc4cc(-c5ccc(OCCCN6CCOCC6)cc5)ccc24)CCC3)nc1` [Example 114, 7-[4-(3-Morpholin-4-yl-propoxy)phenyl]-4-(2-Pyridin-2-yl-5,6-dihydro-4H-pyrrolo[1,2-b]pyrazol-3-yl)quinoline Ditrifluoroacetic Acid], no more than 100 nM.

Take `O=C(c1ccc(-c2ccc3c(-c4c(-c5ccccn5)nn5c4CCC5)ccnc3c2)cc1)N1CCS(=O)(=O)CC1` [Example 133, (1,1-Dioxo-1λ^6-thiomorpholin-4-yl)-{4-[4-(2-pyridin-2-yl-5,6-dihydro-4H-pyrrolo[1,2-b]pyrazol-3-yl)-quinolin-7-yl]-phenyl}-methanone]: the IC50 was no more than 100 nM.

On to `O=C(O)COc1ccc(-c2ccc3c(-c4c(-c5ccccn5)nn5c4CCC5)ccnc3c2)cc1` [Example 46, {4-[4-(2-pyridin-2-yl-5,6-dihydro-4H-pyrrolo[1,2-b]pyrazol-3-yl)quinolin-7-yl]phenoxy}acetic Acid Trifluoroacetic Acid], for which the IC50 is no more than 100 nM. Next, `NS(=O)(=O)c1ccc(-c2ccc3c(-c4c(-c5ccccn5)nn5c4CCC5)ccnc3c2)s1` [Example 92, 5-[4-(2-Pyridin-2-yl-5,6-dihydro-4H-pyrrolo[1,2-b]pyrazol-3-yl)-quinolin-7-yl]-thiophene-2-sulfonic acid amide Trifluoroacetic Acid]: no more than 100 nM; `O=C(c1ccc(-c2ccc3c(-c4c(-c5ccccn5)nn5c4CCC5)ccnc3c2)cc1)N1CCSCC1` [Example 123, {4-[4-(2-Pyridin-2-yl-5,6-dihydro-4H-pyrrolo[1,2-b]pyrazol-3-yl)-quinolin-7-yl]-phenyl}-thiomorpholin-4-yl-methanone]: no more than 100 nM; `CC(C)(C)OC(=O)NCCCC[C@H](NC(=O)c1ccc(-c2ccc3c(-c4c(-c5ccccn5)nn5c4CCC5)ccnc3c2)cc1)C(=O)OC(C)(C)C` [Example 131, 6-tert-Butoxycarbonylamino-2(S)-{4-[4-(2-pyridin-2-yl-5,6-dihydro-4H-pyrrolo[1,2-b]pyrazol-3-yl)-quinolin-7-yl]-benzoylamino}-hexanoic acid tert-butyl ester]: no more than 1000 nM. Next, `CC(C)(C)OC(=O)NCCNC(=O)c1ccc(-c2ccc3c(-c4c(-c5ccccn5)nn5c4CCC5)ccnc3c2)cc1` [Example 121, (2-{4-[4-(2-Pyridin-2-yl-5,6-dihydro-4H-pyrrolo[1,2-b]pyrazol-3-yl)-quinolin-7-yl]-benzoylamino}-ethyl)-carbamic Acid tert-Butyl Ester]: no more than 100 nM; “5-[4-(2-pyridin-2-yl-5,6-dihydro-4H-pyrrolo[1,2-b]pyrazol-3-yl)-7-pyrimidin-5-yl-quinolin-7-yl]pyrimidin-2-ylamine Difluoroacetic Acid [Example 89]”: no more than 1000 nM; `Clc1ccc(-c2ccc3c(-c4c(-c5ccccn5)nn5c4CCC5)ccnc3c2)cc1Cl` [Example 55, 7-(3,4-Dichlorophenyl)-4-(2-pyridin-2-yl-5,6-dihydro-4H-pyrrolo[1,2-b]pyrazol-3-yl)-quinoline]: no more than 1000 nM. Under `CN(C)/C=N/C(=O)c1ccc(-c2ccc3c(-c4c(-c5ccccn5)nn5c4CCC5)ccnc3c2)cc1` [Example 140, N-Dimethylaminomethylene-4-[4-(2-pyridin-2-yl-5,6-dihydro-4H-pyrrolo[1,2-b]pyrazol-3-yl)-quinolin-7-yl]-benzamide] stands no more than 100 nM; under `Cc1cccc(-c2nn3c(c2-c2ccnc4cc(-c5ccccc5)ccc24)CCC3)n1` [Example 61, 7-Phenyl-4-[2-(6-methyl-pyridin-2-yl)-5,6-dihydro-4H-pyrrolo[1,2-b]pyrazol-3-yl]-quinoline Trifluoroacetic Acid], no more than 100 nM; under `Fc1ccc(-c2ccc3c(-c4c(-c5ccccn5)nn5c4CCC5)ccnc3c2)nc1` [Example 83, 7-(5-Fluoropyridin-2-yl)-4-(2-Pyridin-2-yl-5,6-dihydro-4H-pyrrolo[1,2-b]pyrazol-3-yl)quinoline Ditrifluoroacetic Acid], no more than 10000 nM. Regarding `Oc1cc(-c2ccc3c(-c4c(-c5ccccn5)nn5c4CCC5)ccnc3c2)cc(F)c1F` [Example 93, 2,3-Difluoro-5-[4-(2-pyridin-2-yl-5,6-dihydro-4H-pyrrolo[1,2-b]pyrazol-3-yl)-quinolin-7-yl]-phenol Trifluoroacetic Acid], the IC50 was no more than 100 nM. Next, `Nc1ccccc1-c1ccc2c(-c3c(-c4ccccn4)nn4c3CCC4)ccnc2c1` [Example 8, 2-[4-(2-Pyridin-2-yl-5,6-dihydro-4H-pyrrolo[1,2-b]pyrazol-3-yl)quinolin-7-yl]phenylamine Ditrifluoroacetic Acid]: no more than 1000 nM.
